Experimental data: US20100324036A1, “SUBSTITUTED IMIDAZOPYRIDINE DERIVATIVES AS MELANOCORTIN-4 RECEPTOR ANTAGONISTS” (SANTHERA PHARMACEUTICALS (SCHWEIZ) AG, priority 2007, published 2010)

Tests used:
hMC-4R [1] = target: T1, hMC-4R (Homo sapiens, UniProt P32245); test: Membrane binding assay, competition with fluorescence labeled NDP-alpha-MSH (fluorescence polarization); parameters: expressed in transfected cells; host or cells: HEK293 cells (membrane preparations); conditions: HEK293 cell membrane preparations
hMC-4R [2] = target: T1, hMC-4R; test: Functional assay, cAMP formation in HEK293 membrane preparations (fluorescence polarization)

T1 sequence (P32245 whole entry): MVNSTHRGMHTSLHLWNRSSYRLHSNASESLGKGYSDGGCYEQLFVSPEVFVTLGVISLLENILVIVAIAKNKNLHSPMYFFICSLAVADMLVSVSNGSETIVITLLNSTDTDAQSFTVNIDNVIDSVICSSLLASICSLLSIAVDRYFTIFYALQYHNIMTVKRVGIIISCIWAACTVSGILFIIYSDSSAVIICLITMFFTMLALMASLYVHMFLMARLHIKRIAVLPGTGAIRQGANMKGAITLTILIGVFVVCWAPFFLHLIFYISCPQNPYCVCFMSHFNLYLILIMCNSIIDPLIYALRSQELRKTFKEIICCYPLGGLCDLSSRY

| SMILES | IC50 (hMC-4R [1]) [nM] | EC50 (hMC-4R [2]) [nM] |
| --- | --- | --- |
| CC(C)CCN(CCC(C)C)C(=O)c1ccc2nc(C3CC3)c(CCCN3CCCC3)n2c1 [Example 6] | 100 to 1000 |  |
| CC(C)CCN(CCC(C)C)C(=O)c1ccc2nc(C(=O)OC(C)C)c(CCCN3CCCC3)n2c1 [Example 7] | 100 to 1000 | 100 to 1000 |
| CC(C)CCN(CCC(C)C)C(=O)c1ccc2nc(C#N)c(CCCN3CCCC3)n2c1 [Example 8] | > 1000 | 100 to 1000 |
| CC(C)CCN(CCC(C)C)C(=O)c1ccc2nc(-c3nc(C(C)(C)O)no3)c(CCCN3CCCC3)n2c1 [Example 11] | 100 to 1000 |  |
| CC(C)CCN(CCC(C)C)C(=O)c1ccc2nc(-c3n[nH]c(=O)n3C)c(CCCN3CCCC3)n2c1 [Example 13] | 100 to 1000 |  |
| CCOC(=O)CCc1nc2ccc(C(=O)N(CCC(C)C)CCC(C)C)cn2c1CCCN(C)C [Example 14] | 100 to 1000 |  |
| CCOC(=O)c1nc2ccc(C(=O)N(CCC(C)C)CCC(C)C)cn2c1CCCN(C)C [Example 15] | 100 to 1000 |  |
| COCc1noc(-c2nc3ccc(C(=O)N(CCC(C)C)CCC(C)C)cn3c2CCCN(C)C)n1 [Example 16] | 100 to 1000 |  |
| Cc1noc(-c2nc3ccc(C(=O)N(CCC(C)C)CCC(C)C)cn3c2CCCN(C)C)n1 [Example 17] | 100 to 1000 |  |
| CC(C)CCN(CCC(C)C)C(=O)c1ccc2nc(-c3nc(C(C)(C)O)no3)c(CCCN(C)C)n2c1 [Example 18] | 100 to 1000 | 100 to 1000 |
| CC(C)CCN(CCC(C)C)C(=O)c1ccc2nc(N(C)c3ccccn3)c(CCCN3CCCC3)n2c1 [Example 21] | 100 to 1000 |  |
| COc1cccc(N(C)c2nc3ccc(C(=O)N(CCC(C)C)CCC(C)C)cn3c2CCCN2CCCC2)c1 [Example 23] | 100 to 1000 |  |
| CC(C)CCN(CCC(C)C)C(=O)c1ccc2nc(C(=O)N3CCN(C)CC3)c(CCCN3CCCC3)n2c1 [Example 29] | 100 to 1000 |  |

The remaining lines, values ahead:

| IC50 (hMC-4R [1]) [nM] | EC50 (hMC-4R [2]) [nM] | SMILES |
| --- | --- | --- |
| < 100 |  | CCOC(=O)c1nc2ccc(C(=O)N(CCC(C)C)CCC(C)C)cn2c1CCCN1CCCC1 [Example 1] |
| 100 to 1000 |  | CC(C)CCN(CCC(C)C)C(=O)c1ccc2nc(C(=O)N3CCCC3)c(CCCN3CCCC3)n2c1 [Example 2] |
| 100 to 1000 |  | CNC(=O)c1nc2ccc(C(=O)N(CCC(C)C)CCC(C)C)cn2c1CCCN1CCCC1 [Example 3] |
| 100 to 1000 |  | CCNC(=O)c1nc2ccc(C(=O)N(CCC(C)C)CCC(C)C)cn2c1CCCN1CCCC1 [Example 4] |
| 100 to 1000 |  | CC(C)CCN(CCC(C)C)C(=O)c1ccc2nc(CO)c(CCCN3CCCC3)n2c1 [Example 5] |
| < 100 | 100 to 1000 | COCc1noc(-c2nc3ccc(C(=O)N(CCC(C)C)CCC(C)C)cn3c2CCCN2CCCC2)n1 [Example 9] |
| < 100 | < 100 | Cc1noc(-c2nc3ccc(C(=O)N(CCC(C)C)CCC(C)C)cn3c2CCCN2CCCC2)n1 [Example 10] |
| < 100 |  | CC(C)CCN(CCC(C)C)C(=O)c1ccc2nc(-c3nc(C4CC4)no3)c(CCCN3CCCC3)n2c1 [Example 12] |
| < 100 |  | COCCOC(=O)c1nc2ccc(C(=O)N(CCC(C)C)CCC(C)C)cn2c1CCCN1CCCC1 [Example 19] |
| < 100 |  | CC(C)CCN(CCC(C)C)C(=O)c1ccc2nc(C(=O)OCC(C)C)c(CCCN3CCCC3)n2c1 [Example 20] |
| < 100 |  | CC(C)CCN(CCC(C)C)C(=O)c1ccc2nc(CNc3ccc4c(c3)OCO4)c(CCCN3CCCC3)n2c1 [Example 22] |
| < 100 |  | CC(C)CCN(CCC(C)C)C(=O)c1ccc2nc(-c3ccc4nccn4c3)c(CCCN3CCCC3)n2c1 [Example 24] |
| < 100 |  | CC(C)CCN(CCC(C)C)C(=O)c1ccc2nc(CCCNC(=O)OC(C)(C)C)c(CCCN3CCCC3)n2c1 [Example 26] |
| < 100 | 100 to 1000 | CC(C)CCN(CCC(C)C)C(=O)c1ccc2nc(CCCN(C)C)c(CCCN3CCCC3)n2c1 [Example 27] |
| < 100 |  | CC(C)CCN(CCC(C)C)C(=O)c1ccc2nc(CCCN)c(CCCN3CCCC3)n2c1 [Example 28] |
